Assay results taken from patent publication US20140088032A1, “TREATMENT OF MASTITIS” (priority 2011, published 2014).
≈ marks a conversion by molar mass, not a printed value. Where “and” joins values, the source holds several entries; their conditions need not be identical. Identical values can stand only once. Entries after “also recorded” stand apart in the source; their conditions may differ. Counter-ions that a name gives are not always drawn. Like-named read-outs stand apart in the source and are kept apart here.

What was measured:
TLR4 = settings: relative to native LPS; cited from earlier work
[1] = tested on: Staphylococcus aureus strain Newbould 305 (ATCC 29740); test: Example 1: experimental S. aureus mastitis in lactating cows, intramammary treatment; assay type: in vivo, Prim'Holstein lactating cows
Procedure: A Staphylococcus aureus strain Newbould 305 (ATCC 29740) stock suspension (about 10^11 CFU/ml) was kept frozen at −80° C. in peptone physiological water with 10% of glycerol. On day 0, the stock solution was thawed and diluted in peptone physiological water to a concentration of ca 1000 cfu/ml.
On Day 0 8 Prim'Holstein lactating cows, animals of between 2-5 years old and at least 2 months in lactation, were intramammarily inoculated into two homolateral quarters with 1 ml of S. aureus suspension per quarter (ca. 1000 cfu/quarter) into the teat cistern with sterile 2-ml syringes. Teat ends were disinfected with towels soaked in a disinfectant solution before infusion.
On day 6 after the challenge 4 cows (8 quarters) were treated with 75 mg cefquinome—one injector after each of 3 consecutive milkings—Group A. The 4 other cows infected were treated with 75 mg cefquinome as well, but 10 μg of re-LPS were infused just before each cefquinome infusion—Group B.
The standard assay for measuring mastitis in the dairy industry is to count the number of cells (originating from the cow) in the milk. This estimate is termed the somatic cell count (SCC). Specifically, the SCC reflects the levels of cells, including immune cells, such as leukocytes that are released from the lining and tissues of the udder of the infected animal, into the udder cavity. The number of somatic cells in a given volume of milk (typically 1 ml) provides a semi-quantitative estimate of the degree of mastitis, because unaffected animals typically have low SCC levels.
Milk samples were investigated for S. aureus presence and SCC levels at several time points during the study (days 2, 6, 9, 13, 16, 20, 23 post challenge for S. aureus bacteriology).
Clinical cure was assessed 16 days after treatment end (i.e. 23 days after the challenge), and was defined as having at least the two last consecutive milk samples with SCC <250000 cells/ml.

[2] = relative to native LPS; cited from earlier work
[3] = tested on: Staphylococcus aureus strain Newbould 305 (ATCC 29740); test: Example 2: experimental S. aureus mastitis in lactating cows, intramammary treatment; assay type: in vivo, Prim'Holstein lactating cows; settings: after Re-LPS infusion with neomycin/penicillin
Procedure: A Staphylococcus aureus strain Newbould 305 (ATCC 29740) stock suspension (about 10^9 CFU/ml) was kept frozen at −80° C. in peptone physiological water with 10% of glycerol. On day 0, the stock solution was thawed and diluted in peptone physiological water to a concentration of ca 200 cfu/ml.
On Day 0, 12 Prim'Holstein lactating cows, animals of between 2-8 years old and at least 1 month in lactation, were inoculated by intramammary route into two homo-lateral quarters, with 5 ml of S. aureus suspension per quarter (ca. 1000 cfu/quarter), using 5-ml syringes. Teat ends were disinfected with towels soaked in a disinfectant solution before infusion. […]
The standard assay for measuring mastitis in the dairy industry is to count the number of cells (originating from the cow) in the milk. […] The number of somatic cells in a given volume of milk (typically 1 ml) provides a semi-quantitative estimate of the degree of mastitis, because unaffected animals typically have low SCC levels. […]
Bacteriological cure was assessed 16 days after treatment end (i.e. 24 days after the challenge) and was defined as having at least the two last consecutive milk samples found negative for S. aureus (<5 cfu/ml).
Clinical cure was assessed 16 days after treatment end (i.e. 24 days after the challenge), and was defined as having at least the two last consecutive milk samples with SCC <250000 cells/ml.

[4] = tested on: S. aureus strain Newbould 305; test: MIC against the S. aureus challenge strain; assay type: cell-based, Staphylococcus aureus; settings: S. aureus Newbould 305 strain used for the challenge

CCCCCCCCCCCCCC(=O)O[C@H](CCCCCCCCCCC)CC(=O)OC1C(NC(=O)C[C@@H](CCCCCCCCCCC)OC(=O)CCCCCCCCCCC)[C@H](OCC2O[C@H](OP(=O)(O)O)C(NC(=O)C[C@H](O)CCCCCCCCCCC)C(OC(=O)C[C@H](O)CCCCCCCCCCC)[C@@H]2O)OC(CO[C@]2(C(=O)O)CC(O[C@]3(C(=O)O)CC(O)[C@@H](O)C([C@H](O)CO)O3)[C@@H](O)C([C@H](O)CO)O2)[C@H]1OP(=O)(O)O.N.N.N.N (stereo partly drawn) [Re-LPS, Kdo2-lipid A]
Ability to activate TLR4 (TLR4): comparable to that of native LPS
SCC levels induced by treatment ([1]; after Re-LPS infusion with cefquinome, Example 1): above 1.10^6 cells per ml
Endotoxin activity [2]: equal to that of native LPS; also recorded: comparable to that of native LPS
SCC levels induced by treatment [3]: above 1.10^6 cells per ml

CC1(C)S[C@@H]2[C@H](NC(=O)Cc3ccccc3)C(=O)N2[C@H]1C(=O)O [benzyl penicillin]
MIC ([4]; Staphylococcus aureus, read-out: MIC): 0.064 µg/mL (≈ 0.191 µM)

CO/N=C(\C(=O)N[C@@H]1C(=O)N2C(C(=O)[O-])=C(C[n+]3cccc4c3CCCC4)CS[C@H]12)c1csc(N)n1 [cefquinome, I1-[[(6R,7R)-7-[[(2Z)-(2-amino-4-thiazolyl)-(methoxyimino)acetyl]amino]-2-carboxy-8-oxo-5-thia-1-azabicyclo[4.2.0-oct-2-en-3-yl]methyl]-5,6,7,8-tetrahydroquinoliniuminner salt]
MIC [4]: 0.25 µg/mL
Quarters cure rate, bacteriological + clinical ([1]; day 23): 37.5% (3/8)
Quarters cure rate, clinical ([1]; day 23, two last samples SCC <250000 cells/ml): 37.5% (3/8)
Cure ([1]; individual quarter, assessed at day 23 (16 days after treatment end)): no (4×) and yes (4×)
Quarter milk SCC at day 9 ([1]; individual quarter, day 9 relative to infection (day 0), treatment at day 6): 628 ×10^3 cell/ml and 310 ×10^3 cell/ml and 521 ×10^3 cell/ml and 533 ×10^3 cell/ml and 763 ×10^3 cell/ml and 334 ×10^3 cell/ml and 795 ×10^3 cell/ml and 249 ×10^3 cell/ml
Quarter milk SCC at day 13 ([1]; individual quarter, day 13 relative to infection, treatment at day 6): 384 ×10^3 cell/ml and 828 ×10^3 cell/ml and 1533 ×10^3 cell/ml and 414 ×10^3 cell/ml and 250 ×10^3 cell/ml and 177 ×10^3 cell/ml and 112 ×10^3 cell/ml and 134 ×10^3 cell/ml
Quarter milk SCC at day 16 ([1]; individual quarter, day 16 relative to infection, treatment at day 6): 2032 ×10^3 cell/ml and 921 ×10^3 cell/ml and 254 ×10^3 cell/ml and 317 ×10^3 cell/ml and 74 ×10^3 cell/ml and 125 ×10^3 cell/ml and 785 ×10^3 cell/ml and 95 ×10^3 cell/ml
Quarter milk SCC at day 20 ([1]; individual quarter, day 20 relative to infection, treatment at day 6): 2008 ×10^3 cell/ml and 717 ×10^3 cell/ml and 281 ×10^3 cell/ml and 589 ×10^3 cell/ml and 137 ×10^3 cell/ml and 177 ×10^3 cell/ml and 1686 ×10^3 cell/ml and 77 ×10^3 cell/ml
Quarter milk SCC at day 23 ([1]; individual quarter, day 23 relative to infection, treatment at day 6): 1382 ×10^3 cell/ml and 739 ×10^3 cell/ml and 536 ×10^3 cell/ml and 186 ×10^3 cell/ml and 98 ×10^3 cell/ml and 109 ×10^3 cell/ml and 2482 ×10^3 cell/ml and 47 ×10^3 cell/ml

neomycin
MIC [4]: 2 µg/mL
